Series [1] relates to SK-RC-52.hFAP tumors. Kind of series: Therapeutic efficacy in SK-RC-52.hFAP tumor bearing mice. The note with it: single administration, 250 nmol/kg, 250 MBq/kg. In kind it is in vivo, mouse (athymic Balb/c AnNRj-Foxn1). How it is done:
SK-RC-52.hFAP were grown to 80% confluence in RPMI-1640 with 10% fetal bovine serum (FBS) and 1% antibiotic-antimycotic and detached with Trypsin-EDTA (ethylenediaminetetraacetic acid) 0.05%. Tumor cells were resuspended in Hanks' Balanced Salt Solution medium. Aliquots of 5 million cells (100 μL of suspension) were injected subcutaneously in the right flank of female athymic Balb/c AnNRj-Foxn1 mice (6 to 8 wk of age).
Prior to the therapy studies, precursors (25 nmol) were dissolved in 25 μL of milliQ water, then sodium acetate buffer (75 μL, 1 M in water) and 25, 75 or 150 MBq of ^177Lu solution were added. The mixture was heated at 90 °C for 1 minutes followed by dilution with 400 μL of PBS to afford a final volume of 500 μL (5 doses of 100 μL each). […]
The anti-cancer efficacy of ^177Lu-ESV6, ^177Lu-Bi-ESV6 and ^177Lu-Tri-ESV6 was assessed in athymic Balb/c AnNRj-Foxn1 mice bearing SK-RC-52.hFAP tumor in the right flank. ^177Lu-ESV6, ^177Lu-Bi-ESV6 or ^177Lu-Tri-ESV6 were intravenously administered at a dose of 250 nmol/kg, 250 MBq/kg (single administration on day 9 after tumor implantation). […] Body weight of the animals and tumor volume were daily measured and recorded. Tumor dimensions were measured with an electronic caliper and tumor volume was calculated with the formula (long side, mm)×(short side, mm)×(short side, mm)×0.5. […]

Series [2] is described as follows: Tolerability (body weight change) of 177Lu conjugates. In kind it is in vivo, mouse (athymic Balb/c AnNRj-Foxn1). The note with it: single administration, 250 nmol/kg, 250 MBq/kg. How it is done:
The anti-cancer efficacy of ^177Lu-ESV6, ^177Lu-Bi-ESV6 and ^177Lu-Tri-ESV6 was assessed in athymic Balb/c AnNRj-Foxn1 mice bearing SK-RC-52.hFAP tumor in the right flank. ^177Lu-ESV6, ^177Lu-Bi-ESV6 or ^177Lu-Tri-ESV6 were intravenously administered at a dose of 250 nmol/kg, 250 MBq/kg (single administration on day 9 after tumor implantation). Therapy experiments started when the average volume of established tumors had reached 100-150 mm^3. Body weight of the animals and tumor volume were daily measured and recorded. Tumor dimensions were measured with an electronic caliper and tumor volume was calculated with the formula (long side, mm)×(short side, mm)×(short side, mm)×0.5. Animals were euthanized when one or more termination criterium indicated by the experimental license was reached. Prism 7 software (GraphPad Software) was used for data analysis.

For series [3], the system named is SK-RC-52.hFAP cells. In words: Cell efflux assay with 177Lu-labeled ligands. The format is cell-based. How it is done:
SK-RC-52.hFAP cells, were cultured using RPMI medium supplemented with 10% Fetal Bovine Serum (FBS) and 1% Antibiotic-Antimytotic. Cells were seeded in 24-well plates (200'000 cells/well, 0.5 mL/well) and incubated overnight at 37 °C, 5% CO2. Then, media was removed, cells were washed with PBS (2×0.5 mL) and incubated with a solution of ^177Lu-ESV6, ^177Lu-Bi-ESV6, ^177Lu-Tri-ESV6 or ^177Lu-FAP-2286 (10 KBq, […], 0.5 mL). After 1 h, media was removed, and cells were washed with PBS (2×0.5 mL) and incubated with fresh RPMI medium without supplements. Fractions of the culture media were measured with a gamma counter (Packard Cobra) at different time-points. Percentage of compound bound was calculated as fraction of the total activity and corrected for the ^177Lu decay, as shown in FIG. 3.

The subject of series [4] is SK-RC-52.hFAP tumors. In words: Therapeutic efficacy in dose escalation and in combination with L19-IL2. As to conditions: 5, 15 or 30 MBq/mouse on day 7. In kind it is in vivo, mouse (athymic Balb/c AnNRj-Foxn1). How it is done: Prior to the therapy studies, precursors (25 nmol) were dissolved in 25 μL of milliQ water, then sodium acetate buffer (75 μL, 1 M in water) and 25, 75 or 150 MBq of ^177Lu solution were added. The mixture was heated at 90 °C for 1 minutes followed by dilution with 400 μL of PBS to afford a final volume of 500 μL (5 doses of 100 μL each). Quality control of radiosynthesis was performed using radio-HPLC.
The anti-cancer efficacy of L19-IL2 as single agent (3×0.05 mg/mouse), ^177Lu-Tri-ESV6 as single agent at different doses (5 MBq/mouse, 15 MBq/mouse, 30 MBq/mouse), ^177Lu-Tri-ESV6+L19-IL2 combination (5 MBq/mouse of ^177Lu-Tri-ESV6 followed by three injections of L19-IL2 at 0.05 mg/mouse) or saline was assessed in athymic Balb/c AnNRj-Foxn1 mice bearing SK-RC-52.hFAP tumor in the right flank. Therapy experiments started when the average volume of established tumors had reached 100-150 mm^3. Body weight of the animals and tumor volume were daily measured and recorded. Tumor dimensions were measured with an electronic caliper and tumor volume was calculated with the formula (long side, mm)×(short side, mm)×(short side, mm)×0.5. Animals were euthanized when one or more termination criterium indicated by the experimental license was reached. Prism 7 software (GraphPad Software) was used for data analysis. […]

Series [5] deals with SK-RC-52.hFAP tumors. Kind of series: 177Lu biodistribution at different radioisotope molar activities. The format is in vivo, mouse. As to conditions: 0.2 vs 4.8 MBq/nmol; 24 h post injection. How it is done:
Prior to the biodistribution study at different specific activities (FIG. 19), precursors (20 nmol) were dissolved in milliQ water and diluted with sodium acetate (1 M in water, pH=4.5). ^177Lu solution (4 or 96 MBq) were added and the mixture was heated at 90 °C for 10 minutes, followed by dilution with PBS to achieve final volume of 400 μL (4 doses of 100 μL each, corresponding to 0.2 MBq/nmol and 4.8MBq/nmol, respectively).
Results of the ^177Lu biodistribution study at different specific activities: low (0.2 MBq/nmol) and high (4.8 MBq/nmol) with ^177Lu Tri-ESV6-DOTAGA are shown in FIG. 19.

For `N#C[C@@H]1CC(F)(F)CN1C(=O)CNC(=O)c1ccnc2c(NC(=O)CCC(=O)NCCNC(=O)CCOCC(COCCC(=O)NCCNC(=O)CCC(=O)Nc3cccc4c(C(=O)NCC(=O)N5CC(F)(F)C[C@H]5C#N)ccnc34)(COCCC(=O)NCCNC(=O)CCC(=O)Nc3cccc4c(C(=O)NCC(=O)N5CC(F)(F)C[C@H]5C#N)ccnc34)NC(=O)CCC(C(=O)O)N3CCN(CC(=O)O)CCN(CC(=O)O)CCN(CC(=O)O)CC3)cccc12` (stereo partly drawn) [Tri-ESV6-DOTAGA, 2,2′,2″-(10-(19-carboxy-1-((4-((2-((S)-2-cyano-4,4-difluoropyrrolidin-1-yl)-2-oxoethyl)carbamoyl)quinolin-8-yl)amino)-14,14-bis((3-((2-(4-((4-((2-((S)-2-cyano-4,4-difluoropyrrolidin-1-yl)-2-oxoethyl)carbamoyl)quinolin-8-yl)amino)-4-oxobutanamido)ethyl)amino)-3-oxopropoxy)methyl)-1,4,9,16-tetraoxo-12-oxa-5,8,15-triazanonadecan-19-yl)-1,4,7,10-tetraazacyclododecane-1,4,7-triyl)triacetic acid], the “therapeutic activity (tumor volume), in words” value in series [1] was “remarkable therapeutic activity”.
For `N#CC1CC(F)(F)CN1C(=O)CNC(=O)c1ccnc2c(NC(=O)CCC(=O)NCCCCC(NC(=O)CCC(=O)Nc3cccc4c(C(=O)NCC(=O)N5CC(F)(F)CC5C#N)ccnc34)C(=O)NCCNC(=O)CCC(C(=O)O)N3CCN(CC(=O)[O-])CCN(CC(=O)[O-])CCN(CC(=O)[O-])CC3)cccc12.[177Lu+3]` (stereo not shown) [^177Lu-Bi-ESV6-DOTAGA, reference compound], in series [2], the “tolerability (body weight change), in words” value was “very well tolerated”.
Turning to `N#C[C@@H]1CC(F)(F)CN1C(=O)CNC(=O)c1ccnc2c(NC(=O)CCC(=O)NCCNC(=O)CCC(C(=O)O)N3CCN(CC(=O)[O-])CCN(CC(=O)[O-])CCN(CC(=O)[O-])CC3)cccc12.[177Lu+3]` (stereo partly shown) [^177Lu-ESV6-DOTAGA, reference compound], the “tolerability (body weight change), in words” value in series [2] is “very well tolerated”.
Take `N#CC1CC(F)(F)CN1C(=O)CNC(=O)c1ccnc2c(NC(=O)CCC(=O)NCCNC(=O)CCOCC(COCCC(=O)NCCNC(=O)CCC(=O)Nc3cccc4c(C(=O)NCC(=O)N5CC(F)(F)CC5C#N)ccnc34)(COCCC(=O)NCCNC(=O)CCC(=O)Nc3cccc4c(C(=O)NCC(=O)N5CC(F)(F)CC5C#N)ccnc34)NC(=O)CCC(C(=O)O)N3CCN(CC(=O)[O-])CCN(CC(=O)[O-])CCN(CC(=O)[O-])CC3)cccc12.[177Lu+3]` (stereo not shown) [^177Lu-Tri-ESV6-DOTAGA]: the “residence time / efflux, in words” value in series [3] is “longer residence time in FAP-positive tumor cells, followed by ^177Lu-Bi-ESV6, ^177Lu-ESV6 and ^177Lu-FAP2286”. Besides, the “therapeutic activity, in words” value in series [4] is listed as “dose-dependent therapeutic activity”. Besides, in series [5], the “effect of molar activity on biodistribution, in words” value is given as “does not significantly interfere with the advantageous biodistribution”. Besides, the “tolerability (body weight change), in words” value in series [2] was “very well tolerated”.

The values above are taken from patent US20260364214A1, “MULTIVALENT FIBROBLAST ACTIVATION PROTEIN LIGANDS FOR TARGETED DELIVERY APPLICATIONS” (Philochem AG, priority 2022, published 2026).
